Data: article PMC4728427, “Mechanism of allosteric activation of TMEM16A/ANO1 channels by a commonly used chloride channel blocker” (British Journal of Pharmacology, 2016)

Columns and labels:
Mouse TMEM16A [1] = target: T1, Mouse TMEM16A (Mus musculus, UniProt Q8BHY3); assay: Non-stationary noise analysis of whole-cell TMEM16A tail currents; assay type: cell-based; details: −70 mV tail pulse, 300 nM [Ca2+]i; for P o: control 0.09 ± 0.02; for single channel current i: control 0.22 ± 0.01
T1 construct: expressed in transfected cells; host or cells: HEK-293T
T1 sequence (Q8BHY3 1-960): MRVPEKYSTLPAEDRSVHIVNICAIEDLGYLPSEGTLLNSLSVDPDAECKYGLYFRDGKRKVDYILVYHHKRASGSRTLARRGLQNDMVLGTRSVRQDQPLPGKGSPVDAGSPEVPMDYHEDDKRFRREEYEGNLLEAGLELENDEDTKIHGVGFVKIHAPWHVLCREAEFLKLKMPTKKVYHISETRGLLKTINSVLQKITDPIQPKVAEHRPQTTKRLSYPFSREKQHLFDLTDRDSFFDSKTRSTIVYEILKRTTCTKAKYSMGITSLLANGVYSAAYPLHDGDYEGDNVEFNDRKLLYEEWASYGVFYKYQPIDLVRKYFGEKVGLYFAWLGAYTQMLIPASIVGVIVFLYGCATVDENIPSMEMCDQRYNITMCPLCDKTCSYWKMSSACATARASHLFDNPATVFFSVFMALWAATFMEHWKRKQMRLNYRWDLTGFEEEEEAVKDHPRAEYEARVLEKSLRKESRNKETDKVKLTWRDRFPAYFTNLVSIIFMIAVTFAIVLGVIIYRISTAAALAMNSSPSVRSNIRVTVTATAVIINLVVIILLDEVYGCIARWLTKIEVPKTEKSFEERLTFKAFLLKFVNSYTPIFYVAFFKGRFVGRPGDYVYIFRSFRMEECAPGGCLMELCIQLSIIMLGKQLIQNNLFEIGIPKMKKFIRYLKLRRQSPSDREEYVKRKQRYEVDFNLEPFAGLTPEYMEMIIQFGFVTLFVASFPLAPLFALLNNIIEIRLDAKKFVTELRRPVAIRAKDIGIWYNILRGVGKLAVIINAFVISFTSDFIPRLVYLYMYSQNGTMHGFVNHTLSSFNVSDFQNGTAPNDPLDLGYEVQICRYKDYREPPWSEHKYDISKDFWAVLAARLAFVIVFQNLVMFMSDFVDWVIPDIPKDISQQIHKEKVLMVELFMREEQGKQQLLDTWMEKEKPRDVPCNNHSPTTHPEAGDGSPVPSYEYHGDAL
Protocol: For non‐stationary noise analysis (Heinemann and Conti, 1992; Tammaro and Ashcroft, 2007), 80–200 identical pulses to a test potential of −70 mV (filtered at 10 kHz and sampled at 50 kHz) were applied, and the mean response, I, was calculated. The variance, σ ^2, was computed from the average squared difference of consecutive traces. Background variance and current at 0 mV were subtracted, and the variance–mean plot was fit by (4) σ^2=iI−I^2/N,
with the single channel current, i, and the number of channels, N, as free parameters.
Non‐stationary noise analysis was performed in the presence of 300 nM [Ca^2+]i during a tail pulse to −70 mV (Figure 8). In the absence of A9C, the i of TMEM16A was 0.22 ± 0.01 pA (n = 9). In the presence of 100 and 1000 μM [A9C]ext, i was 0.22 ± 0.01 pA (n = 9) and 0.23 ± 0.02 pA (n = 9) respectively. […] In the absence of A9C, the P o of TMEM16A was 0.09 ± 0.02 (n = 9) while in the presence of 100 and 1000 μM [A9C]ext, the P o was 0.41 ± 0.06 (n = 9) and 0.62 ± 0.06 (n = 9) respectively. Thus, extracellular A9C increased TMEM16A channel P o at a fixed V m and [Ca^2+]i.

Mouse TMEM16A [2] = target: T1, Mouse TMEM16A; assay: Concentration jump in excised inside-out or outside-out patches, 300 nM [Ca2+]i; assay type: cell-based; details: +70 mV
Protocol: TMEM16A currents were measured with the whole‐cell or inside‐out patch configuration of the patch‐clamp technique as detailed in the Supporting Information. The exchange of solutions was achieved by using a local perfusion system consisting of eight tubes of 1.2 mm diameter in which the tip of the patch pipette was inserted. In some experiments, ultra‐rapid (<50 ms) changes in A9C concentration ([A9C]) (‘concentration jumps’) were achieved using a computer‐controlled perfusion system (Warner Instruments, Hamden, CT, USA).
To examine if intracellular A9C produced an activating effect on TMEM16A currents, concentration jump experiments were performed in the inside‐out configuration of the patch‐clamp technique, with A9C applied intracellularly and in the presence of 300 nM [Ca^2+]i. […] For example, I a/I 0 in the presence of 3000 μM intracellular A9C during inside‐out patches was 1.3 ± 0.1 (n = 5), while extracellular A9C produced a I a/I 0 of 27 ± 4 (n = 5) in outside‐out patches (Figure 6).

- P o (Mouse TMEM16A [1]; 100 μM [A9C]ext): 0.41 ± 0.06
- single channel current i (Mouse TMEM16A [1]; 100 μM [A9C]ext): 0.22 ± 0.01 pA
- P o (Mouse TMEM16A [1]; 1000 μM [A9C]ext): 0.62 ± 0.06
- single channel current i (Mouse TMEM16A [1]; 1000 μM [A9C]ext): 0.23 ± 0.02 pA
- I a/I 0 (current activation) (Mouse TMEM16A [2]; 3000 μM extracellular A9C, outside-out patches): 27 ± 4
- I a/I 0 (current activation) (Mouse TMEM16A [2]; 3000 μM intracellular A9C, inside-out patches): 1.3 ± 0.1
SMILES: O=C(O)c1c2ccccc2cc2ccccc12 [A9C, Anthracene‐9‐carboxylic acid]
